In PubChem BioAssay AID2305 (GlaxoSmithKline (GSK), 2010):
pIC50: −log10 of the molar value. Where “and” joins values, the source holds several entries; their conditions need not be identical. Equal entries are not always repeated.

system: P. falciparum 3D7 growth, pLDH absorbance; test: P. falciparum 3D7 growth inhibition, dose response, strain 3D7 (AID 2305)

Row | Compound | pIC50
1 | NCCCNc1nc(Nc2ccc(C(F)(F)F)cc2F)c2c(=O)[nH]ccc2n1 | 5.98
2 | Oc1ccc2[nH]cc(C3=CCN(CCc4ccccc4)CC3)c2c1 | 6.51
3 | CC(C)(C)CNCC(C)(C)c1nc(-c2ccc(Cl)c(O)c2)c(-c2ccncc2)[nH]1 | 6.22
4 | Cc1cc(C(=O)Nc2ccc(C)c(-c3nc(N(C(=O)c4ccc(F)c(C)c4)C4CCNCC4)nc4c3ccc(=O)n4-c3c(F)cccc3F)c2)ccc1F | 6.49
5 | CCN(CC)S(=O)(=O)c1ccc(C(=O)Oc2ccccc2N(Cc2ccc(OC)cc2)C2=NS(=O)(=O)c3ccccc32)cc1 | 6.24
6 | CN(c1ccc(NC(=O)Nc2cccc(Cl)c2)cc1)c1ccnc(N)n1 | 6.20
7 | Cc1[nH]c(C)c([N+](=O)[O-])c(=O)c1-c1ccc(Oc2ccccc2)cc1 | 6.57
8 | Cc1ccc2nc(-c3ccc(C=CC(=O)NCc4ccc(Cl)c(Cl)c4)cc3)[nH]c2c1 | 6.05
9 | Cc1cc(NC(=O)NCCN2CCC(NS(=O)(=O)c3ccccc3F)CC2)c2ccccc2n1 | 6.02
10 | O=C(Nc1cccc(-c2ccc(-c3nc4ccccc4[nH]3)cc2)c1)Nc1ccc2c(c1)OCO2 | 6.17
11 | CNCCNCc1cccc(-c2ccc(-c3nc4ccccc4[nH]3)s2)c1 | 6.08
12 | O=C(/C=C/c1ccc(Cl)cc1Cl)NCCCCCN1CCC(c2c[nH]c3ccccc23)CC1 | 6.03
13 | CCCc1cc(C)ccc1OCCCON1C(NC(=O)OCC)=NC(NC(=O)OCC)=NC1(C)C | 7.40
14 | CCCCCCN1CCCN(Cc2ccc(C(=O)Nc3ccc(C(C)C)cc3)cc2)CC1 | 6.08
15 | Cc1cc(N2CCCC2=O)ccc1-c1ccc(C(=O)N2CCC(Oc3cccc(Cl)c3)CC2)cc1 | 6.37
16 | CCCCCCn1c(Sc2ccc(C#N)c([N+](=O)[O-])c2)nnc1-c1ccc(N(C)C)cc1 | 5.97
17 | COc1ccccc1-c1ccc(C(=O)NCC2CCCN(Cc3cccc(C(F)(F)F)c3)C2)s1 (stereo not drawn) | 5.81
18 | Cc1cccc2[nH]c(-c3cccc(-c4ccc(NC(=O)Cc5ccon5)cc4)c3)nc12 | 5.96
19 | CC(C)CC(NC(=O)c1cccc(OCCN2CCOCC2)c1)C(=O)NC(/C=N/NC(=O)c1ccccc1)CCc1ccccc1 (stereo not drawn) | 6.60
20 | O=S(=O)(Nc1ccc2nccc(N3CCNCC3)c2c1)c1ccc(-c2ccccc2)cc1 | 6.01
21 | CN(C)CCOc1cc(NC(=O)Nc2ccc(Cl)cc2C(F)(F)F)ccc1I | 6.03
22 | Cc1cccc2[nH]c(-c3ccc(-c4cccc(CN5CCCC5CN)c4)s3)nc12 (stereo not drawn) | 6.06
23 | CN(c1ccc(F)cc1)S(=O)(=O)c1ccc(Cl)c(C(=O)Nc2cccc(C#N)c2)c1 | 6.15
24 | COc1ccc(Cn2c(=O)[nH]c3cc(C(=O)NC4CCN(Cc5ccccc5)CC4)ccc3c2=O)cc1 | 6.12
25 | COCCSc1nc2scc(C)c2c(=O)n1Cc1cccc(OC)c1 | 6.04

Row | Compound | pIC50
26 | O=C(Nc1ccc(Cn2ncc(N3CCCNCC3)c(Cl)c2=O)cc1)Nc1cccc(Oc2ccccc2)c1 | 6.00
27 | c1ccc2cc(CNCCCN3CCN(CCCNCc4ccc5ccccc5c4)CC3)ccc2c1 | 6.26
28 | CCCCCCCN1CCC(CC(=O)Nc2ccnc3ccc(OC)cc23)CC1 | 6.14
29 | c1ccc(Oc2ccc(Nc3nncc4ccccc34)cc2)cc1 | 6.16
30 | CC(C)CN(C)c1ncnc2c1nc(-c1cncc(C#N)c1)n2CCNCc1ccccc1 | 5.87
31 | Cc1ccc2c(Cl)c(C(=O)N3CCCc4ccccc43)sc2c1 | 5.82
32 | CCc1cc(NC(=O)Nc2ccnc3ccccc23)ccc1OC | 6.85
33 | NS(=O)(=O)c1ccc(Nc2nccc(-c3c(-c4cccc(NC(=O)c5c(F)cccc5F)c4)nn4ccccc34)n2)cc1 | 6.12
34 | COCCNCc1cccc(-c2ccc(CN(C(=O)Nc3ccccc3)C3CCN(Cc4ccccc4)CC3)cc2)c1 | 6.11
35 | CN(Cc1c(Cl)cnn1C)S(=O)(=O)c1ccc2ccccc2c1 | 5.98
36 | Fc1ccc2nc(-c3ccc(-c4ccc(CN5CCCCC5)cc4)cc3)[nH]c2c1 | 6.46
37 | CCc1sc(N2CCN(C)CC2)nc1C(=O)NCCc1ccc(Cl)c(Cl)c1 | 5.93
38 | CC(O)C1CCCCN1C(=O)c1cccc(-c2cccc(-c3nc4ccc(C(F)(F)F)cc4[nH]3)c2)c1 (stereo not drawn) | 6.55
39 | COc1cc2nc(N(C)C)nc(Nc3ccc4c(cnn4Cc4ccccc4)c3)c2cc1OC | 7.40
40 | COc1cc2c(cc1OC)C(c1ccc(Br)cc1)CN(C)CC2 (stereo not drawn) | 6.03
41 | CN(C)CCCNCCS(=O)(=O)c1cccc(Nc2ccc(-c3cccc(N(C)C)c3)cn2)c1 | 6.07
42 | O=C(Nc1ccc(Cn2ncc(N3CCCNCC3)c(Cl)c2=O)cc1)Nc1ccc(OCc2ccccc2)cc1 | 6.09
43 | COc1ccc(NC(=O)c2ccc(Br)c(C)c2)cc1N1CCN(Cc2ccccc2)CC1 | 6.04
44 | Cc1cccc2[nH]c(-c3cccc(-c4ccc(NC(=O)NC(C)C)cc4)c3)nc12 | 6.12
45 | CCCOc1cc(NC(=O)Nc2ccnc3ccccc23)cc(OCCC)c1 | 6.14
46 | CN(C)CCNc1cc(-c2cccnc2)nc(-c2ccncc2)n1 | 6.22
47 | Cn1cnc2c(SCc3ccc(OCc4ccccc4)cc3)ncnc21 | 6.25
48 | COc1ccc2nccc(N(C)CC3(O)CCN(CCc4ccc5c(c4)OCCO5)CC3)c2n1 | 6.85
49 | CCN(C(=O)c1ccc(NC(=O)c2cccs2)cc1)c1nc2c(C)cccc2s1 | 6.07
50 | O=C(Nc1ccc(Oc2ccc(OC(F)(F)F)cc2)cc1)c1ccco1 | 5.95

Row | Compound | pIC50
51 | COc1ccc(C(=O)N2CCC(C(=O)NC(C)c3ccc(-n4ccnc4)cc3)CC2)c2ccccc12 (stereo not drawn) | 5.95
52 | CN1CCC(NCc2cccc(-c3cnc(NCc4ccccc4)nc3)c2)CC1 | 6.01
53 | COc1ccc(N2CCN(CCCN3CCN(C(=O)c4ccc(/C=C/c5ccc(Cl)c(Cl)c5)cc4)CC3)CC2)c(OC)c1 | 6.04
54 | CCN(CCCN1CCCCC1)c1cc(C)nc(Nc2ccc(C)cc2Cl)n1 | 6.47
55 | NC(N)=NN=CC(=O)Nc1ccc(C(F)(F)F)cc1 | 6.03
56 | c1ccc2c(Nc3ccc(Cc4ccc(Nc5c6ccccc6nc6ccccc56)cc4)cc3)c3ccccc3nc2c1 | 6.80
57 | CC(C)C[C@H](NC(=O)c1cc(-c2ccc(F)cc2)no1)C(=O)O (tested in a mixture with another compound) | 6.01
58 | Cc1ccc(Cl)c2sc(N3CCN(C(=O)c4ccc([N+](=O)[O-])o4)CC3)nc12 | 6.49
59 | COc1ccc2nccc([C@@H](O)CN3CCC(NCCOc4ccc(F)cc4F)CC3)c2c1 | 6.85
60 | CN1CCC(NCc2cccc(-c3ccc(S(=O)(=O)NCc4ccccc4)c(F)c3)c2)CC1 | 6.48
61 | O=C(Nc1ccc(F)cc1)NC1CCN(c2ccnc3cc(Cl)ccc23)CC1 | 6.39
62 | NC(=O)c1ccccc1Nc1nc(Nc2ccn[nH]2)ncc1Cl | 6.02
63 | CCOC(=O)C1=C(C)NC2=C(C(=O)CC(C)(C)C2)C1c1ccc(Br)cc1 (stereo not drawn) | 5.94
64 | CCCCc1ccc(C(=O)NC2CCN(C[C@H](O)c3ccnc4ccc(OC)cc34)CC2)cc1 | 6.14
65 | ON=C1c2cc(OCCN3CCCCC3)c(Cl)cc2-c2cc(Cl)c(OCCN3CCCCC3)cc21 | 6.15
66 | N#Cc1c(Cl)cccc1Oc1ccc(S(=O)(=O)NC2CCC(CN3CCC(c4c[nH]c5ccccc45)CC3)CC2)cc1 (stereo not drawn) | 6.15 and 5.97
67 | FC(F)(F)c1ccc2nccc(NN=Cc3ccccc3Cl)c2c1 | 6.10
68 | O=C(Nc1ccc(F)cc1)c1cnc(N2CCN(c3ccncc3)CC2)c(Cl)c1 | 6.13
69 | COc1cc2nccc(Nc3ccc(NC(=O)c4ccc(C)cc4)c(O)c3)c2cc1OC | 6.77
70 | Cc1cc(-c2cccc(CNCc3ccc(F)cc3)c2)ccc1S(=O)(=O)NCCN1CCCC1 | 6.14
71 | Cc1ccc(-c2ccc3c(c2)C=C(C(=O)NC2CCN(CCNC(=O)c4cccc(C(F)(F)F)c4)CC2)CCC3)cc1 | 6.29
72 | OCCC1CCN(Cc2ccc(-c3ccc(-c4nc5ccccc5[nH]4)cc3)cc2)CC1 | 6.11
73 | COc1cc(OC)c(NC(=O)C2c3ccccc3C(=O)N(C)C2c2cccs2)cc1Cl (stereo not drawn) | 6.12
74 | Cc1cccc2[nH]c(-c3ccc(-c4ccc(CNCC5CCCO5)cc4)cc3)nc12 (stereo not drawn) | 6.17
75 | O=C(CN1CCCCC1)Nc1ccc(Nc2nccc(NCC(O)c3ccccc3)n2)cc1 (stereo not drawn) | 6.24

Row | Compound | pIC50
76 | O=C(/C=C/c1ccsc1)NC1CCC(CN2CCC(c3c[nH]c4ccccc34)CC2)CC1 (stereo not drawn) | 5.95
77 | CCOc1cc(C(=O)Nc2ccc3nc(N4CCCCC4)cc(C)c3c2)cc(OCC)c1OCC | 6.09
78 | O=C(Nc1cccc(CN2CCCN(Cc3ccc(O)cc3)CC2)c1)c1cc2ccccc2o1 | 5.92
79 | Cc1ccc(C(=O)Nc2ccc(C)c(OC3CCN(Cc4ccco4)C3)c2)cc1 (stereo not drawn) | 6.01
80 | COc1ccc(Oc2ccc(-c3c(C)[nH]c(C)c(Cl)c3=O)cc2)cc1 | 6.85
81 | CCCCCCc1cnc2nc(N)nc(N)c2c1C | 6.72
82 | CCCCCCCCc1c(C)[nH]c(C)c(I)c1=O | 6.13
83 | CC(C)Nc1cc(C(=O)N[C@@H](Cc2ccccc2)[C@H](O)CNC2CCOCC2)c(F)c(N2CCCCS2(=O)=O)c1 | 6.74
84 | C[C@H](NC(=O)c1c(CN2CCC(NC(=O)CC(C)(C)C)CC2)c(-c2cccs2)nc2ccccc12)C1CCCCC1 | 6.02
85 | Fc1cccc(COc2ccc(Nc3ncnc4cc(/C=C/[C@@H]5CCCN5)sc34)cc2Cl)c1 | 6.23
86 | CCN1CCCC1CN(Cc1ccc(-c2ccc(C(F)(F)F)cc2)cc1)C(=O)Cn1c(CCc2cccc(F)c2F)nc(=O)c2ccccc21 (stereo not drawn) | 5.80
87 | c1ccc(OCCOc2ccc(Nc3ccnc4cc5ccccc5cc34)cc2)cc1 | 6.60
88 | COc1cc(CNC2Cc3ccccc3C2)ccc1Oc1ccc2nc[nH]c2c1 | 6.02
89 | CCNC(=O)c1cc(S(=O)(=O)N2CCN(c3ccccn3)CC2)cs1 | 6.06
90 | O=S(=O)(NCCN1CCCC1)c1ccc(-c2ccc(CNCc3ccccc3)cc2)s1 | 6.07
91 | COc1ccc2nc(C)cc(NN=Cc3ccc(Cl)cc3)c2c1 | 6.64
92 | C=C1C[C@@H](n2cnc3c(NC(=O)c4ccccc4)ncnc32)[C@@H](F)[C@@H]1OC(c1ccccc1)(c1ccccc1)c1ccccc1 | 6.85
93 | CC(=O)c1ccccc1OCCSc1nnc(Cc2cccs2)n1C1CCCCC1 | 6.04
94 | CCCCCN1CCCC(NS(=O)(=O)c2ccc(C(=O)Nc3cccc(C(F)(F)F)c3)cc2)C1 (stereo not drawn) | 6.10
95 | CS(=O)(=O)n1c(CN2CCN(c3ncc(C(F)(F)F)cc3Cl)CC2)nc2ccccc21 | 5.97
96 | O=C(NOCc1ccccc1)c1cc(Cl)ccc1O | 5.96
97 | COC(=O)Nc1cc(C(F)(F)F)ccc1N1CCC(CNS(=O)(=O)c2ccc(OC)cc2)CC1 | 6.60
98 | CN1CCc2cc(NS(=O)(=O)c3ccc(-c4ccc(Cl)cc4)cc3)c(OCCCN3CCCCC3)cc2CC1 | 6.02
